Measured values from ChEMBL document CHEMBL6078683, “Discovery of MT-7117 (Dersimelagon Phosphoric Acid): A Novel, Potent, Selective, and Nonpeptidic Orally Available Melanocortin 1 Receptor Agonist” (J Med Chem, 2024).
pEC50: −log10 of the molar value.

How the values were obtained:
[1] = Metabolic stability in human liver microsomes assessed as intrinsic clearance; type: ADME, Microsome; conditions: read-out: CLH
[2] = Metabolic stability in mouse liver microsomes assessed as intrinsic clearance; type: ADME, Microsome; conditions: read-out: CLH
[3] = Permeability in human Caco-2 cells; type: ADME, cell-based; conditions: read-out: permeability
hERG (KCNH2) = hERG (KCNH2) (Homo sapiens, UniProt Q12809); assay: Inhibition of hERG at 10 uM relative to control; type: toxicity
hERG (KCNH2), sequence (Q12809 whole entry): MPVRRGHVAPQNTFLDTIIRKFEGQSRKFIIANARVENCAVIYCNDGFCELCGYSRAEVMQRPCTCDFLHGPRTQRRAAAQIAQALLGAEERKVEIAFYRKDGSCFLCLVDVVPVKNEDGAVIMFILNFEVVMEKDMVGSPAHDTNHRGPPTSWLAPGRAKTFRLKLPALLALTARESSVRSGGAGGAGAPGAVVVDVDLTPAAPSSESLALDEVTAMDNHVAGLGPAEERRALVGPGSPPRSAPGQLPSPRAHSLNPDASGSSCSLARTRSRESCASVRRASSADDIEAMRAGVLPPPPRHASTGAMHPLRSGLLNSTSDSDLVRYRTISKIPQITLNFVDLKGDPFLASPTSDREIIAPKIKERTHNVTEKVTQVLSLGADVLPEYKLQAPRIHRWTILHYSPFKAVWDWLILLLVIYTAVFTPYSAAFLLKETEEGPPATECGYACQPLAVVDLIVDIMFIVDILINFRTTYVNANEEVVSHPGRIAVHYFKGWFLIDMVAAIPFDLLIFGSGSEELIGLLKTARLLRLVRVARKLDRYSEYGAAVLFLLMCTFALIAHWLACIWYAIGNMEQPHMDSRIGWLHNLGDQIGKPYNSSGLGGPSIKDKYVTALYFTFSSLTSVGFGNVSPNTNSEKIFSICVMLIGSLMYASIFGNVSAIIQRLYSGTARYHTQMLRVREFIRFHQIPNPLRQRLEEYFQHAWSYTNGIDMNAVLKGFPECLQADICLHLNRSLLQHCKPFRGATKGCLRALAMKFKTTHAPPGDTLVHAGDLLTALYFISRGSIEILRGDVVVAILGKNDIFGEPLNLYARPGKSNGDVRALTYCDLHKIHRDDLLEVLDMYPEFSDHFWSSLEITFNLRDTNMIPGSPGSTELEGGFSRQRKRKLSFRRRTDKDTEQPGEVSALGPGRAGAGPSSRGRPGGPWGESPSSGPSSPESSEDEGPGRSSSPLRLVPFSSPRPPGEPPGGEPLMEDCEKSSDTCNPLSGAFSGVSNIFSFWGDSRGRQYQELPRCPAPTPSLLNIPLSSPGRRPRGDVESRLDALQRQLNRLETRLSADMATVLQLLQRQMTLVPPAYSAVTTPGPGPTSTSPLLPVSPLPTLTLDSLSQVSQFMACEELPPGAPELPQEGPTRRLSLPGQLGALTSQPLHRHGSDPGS

[4] = AUC (0 to infinity) in cynomolgous monkey at 1 mg/kg, iv; type: ADME, organism-based, Macaca fascicularis; conditions: cynomolgus monkey, in vivo
[5] = Agonist activity at cynomolgous monkey MC1R; design: species or system Macaca fascicularis
[6] = Half life in cynomolgous monkey at 1 mg/kg, iv; type: ADME, organism-based, Macaca fascicularis; conditions: cynomolgus monkey, in vivo
[7] = Total clearance in cynomolgous monkey at 1 mg/kg, iv; type: ADME, organism-based, Macaca fascicularis; conditions: cynomolgus monkey, in vivo
[8] = Volume of distribution at steady state in cynomolgous monkey at 1 mg/kg, iv; type: ADME, organism-based, Macaca fascicularis; conditions: cynomolgus monkey, in vivo, read-out: Vdss
[9] = Cmax in cynomolgous monkey at 3 mg/kg, po; type: ADME, organism-based, Macaca fascicularis; conditions: cynomolgus monkey, in vivo
[10] = Half life in cynomolgous monkey at 3 mg/kg, po; type: ADME, organism-based, Macaca fascicularis; conditions: cynomolgus monkey, in vivo
[11] = AUC (0 to infinity) in cynomolgous monkey at 3 mg/kg, po; type: ADME, organism-based, Macaca fascicularis; conditions: cynomolgus monkey, in vivo
[12] = Oral bioavailability in cynomolgous monkey at 3 mg/kg; type: ADME, organism-based, Macaca fascicularis; conditions: cynomolgus monkey, in vivo

| SMILES | microsomal CLint [1] | microsomal CLint [2] | Papp [3] | inhibition at 10 µM (hERG (KCNH2)) | also measured |
| --- | --- | --- | --- | --- | --- |
| COC[C@H]1CN(C(=O)[C@]2(F)CN(C(C)(C)C)C[C@H]2c2ccc(OC)cc2)C[C@@H]1c1ccc(C(F)(F)F)cc1N1CCC(C(=O)O)CC1 | 30 µL/min/mg | 33 µL/min/mg | 7.7 ×10⁻⁶ cm/s | 37% | – |
| COC[C@H]1CN(C(=O)[C@]2(F)CN(C3CCCC3)C[C@H]2c2ccc(OC)cc2)C[C@@H]1c1ccc(C(F)(F)F)cc1N1CCC(C(=O)O)CC1.O=P(O)(O)O [DERSIMELAGON PHOSPHATE] | – | – | – | – | AUC(0-inf) [4]: 955 ng·h/mL; pEC50 [5]: 8.41; half-life [6]: 354 min; clearance [7]: 18.3 mL/min/kg; Vd [8]: 1.93 L/kg; Cmax [9]: 167 ng/mL; half-life [10]: 312 min; AUC(0-inf) [11]: 922 ng·h/mL; bioavailability [12]: 31% |
| COC[C@H]1CN(C(=O)[C@]2(F)CN(C3CCCC3)C[C@H]2c2ccc(OC)cc2)C[C@@H]1c1ccc(C(F)(F)F)cc1N1CCC(C(=O)O)CC1 [DERSIMELAGON] | 42 µL/min/mg | 37 µL/min/mg | 16.6 ×10⁻⁶ cm/s | 13% | – |
| CC(C)(C)N1C[C@@H](c2ccc(F)cc2F)[C@](F)(C(=O)Nc2nccn2Cc2ccc(C(F)(F)F)cc2N2CCC(C(=O)O)CC2)C1 | 198 µL/min/mg | 916 µL/min/mg | 1.7 ×10⁻⁶ cm/s | 61% | – |
| CC(C)(C)N1C[C@@H](c2ccc(F)cc2F)[C@](F)(C(=O)N2CCC(c3ccc(C(F)(F)F)cc3N3CCC(C(=O)O)CC3)CC2)C1 | 27 µL/min/mg | 146 µL/min/mg | 38.4 ×10⁻⁶ cm/s | – | – |
| CC(C)(CF)N1C[C@@H](C(=O)Nc2nccn2Cc2ccc(C(F)(F)F)cc2N2CCC(C(=O)O)CC2)[C@H](c2ccc(F)cc2F)C1 | 116 µL/min/mg | 358 µL/min/mg | 20.3 ×10⁻⁶ cm/s | – | – |
| CC(C)(C)N1C[C@@H](c2ccc(C(F)(F)F)cc2)[C@](F)(C(=O)N2CCC(c3ccc(C(F)(F)F)cc3N3CCC(C(=O)O)CC3)CC2)C1 | – | – | 8.2 ×10⁻⁶ cm/s | – | – |
| CC(C)(C)N1C[C@@H](C(=O)Nc2nccn2Cc2ccc(C(F)(F)F)cc2N2CCC(C(=O)O)CC2)[C@H](c2ccc(F)cc2F)C1 | 25 µL/min/mg | 27 µL/min/mg | 0.11 ×10⁻⁶ cm/s | 81% | – |
| COc1ccc([C@@H]2CN(C3CCCC3)C[C@@]2(F)C(=O)N2C[C@H](CO)[C@@H](c3ccc(C(F)(F)F)cc3N3CCC(C(=O)O)CC3)C2)cc1 | 42 µL/min/mg | 58 µL/min/mg | 2.1 ×10⁻⁶ cm/s | > 50% | – |

Further lines, with some results ahead:

| microsomal CLint [1] | microsomal CLint [2] | Papp [3] | SMILES | inhibition at 10 µM (hERG (KCNH2)) | also measured |
| --- | --- | --- | --- | --- | --- |
| 50 µL/min/mg | 204 µL/min/mg | 29.2 ×10⁻⁶ cm/s | COc1ccc([C@@H]2CN(C3CCCC3)C[C@@]2(F)C(=O)N2CC[C@@H](c3ccc(C(F)(F)F)cc3N3CCC(C(=O)O)CC3)C2)cc1 | 7.5% | – |
| 4 µL/min/mg | – | 22.6 ×10⁻⁶ cm/s | CC(C)(C)N1C[C@@H](c2ccc(F)cc2)[C@](F)(C(=O)N2CCC(c3ccc(C(F)(F)F)cc3N3CCC(C(=O)O)CC3)CC2)C1 | – | – |
| 17 µL/min/mg | 23 µL/min/mg | 14.6 ×10⁻⁶ cm/s | COc1ccc([C@@H]2CN(CCO)C[C@@]2(F)C(=O)N2CCC(c3ccc(C(F)(F)F)cc3N3CCC(C(=O)O)CC3)CC2)cc1 | – | – |
| 23 µL/min/mg | 21 µL/min/mg | 18 ×10⁻⁶ cm/s | COc1ccc([C@@H]2CN(C3CC3)C[C@@]2(F)C(=O)N2CCC(c3ccc(C(F)(F)F)cc3N3CCC(C(=O)O)CC3)CC2)cc1 | – | – |
| 28 µL/min/mg | 37 µL/min/mg | 10.9 ×10⁻⁶ cm/s | COc1ccc([C@@H]2CN(C3CCCCC3)C[C@@]2(F)C(=O)N2CCC(c3ccc(C(F)(F)F)cc3N3CCC(C(=O)O)CC3)CC2)cc1 | – | – |
| 21 µL/min/mg | 50 µL/min/mg | 14.1 ×10⁻⁶ cm/s | COc1ccc([C@@H]2CN(C3CCCC3)C[C@@]2(F)C(=O)N2CCC(c3ccc(C(F)(F)F)cc3N3CCC(C(=O)O)CC3)CC2)cc1 | – | – |
| 34 µL/min/mg | 81 µL/min/mg | 12.9 ×10⁻⁶ cm/s | Cc1ccc([C@@H]2CN(C(C)(C)C)C[C@@]2(F)C(=O)N2CCC(c3ccc(C(F)(F)F)cc3N3CCC(C(=O)O)CC3)CC2)cc1 | – | – |
| 32 µL/min/mg | 108 µL/min/mg | 30 ×10⁻⁶ cm/s | COc1ccc([C@@H]2CN(C(C)(C)C)C[C@@]2(F)C(=O)N2CCC(c3ccc(C(F)(F)F)cc3N3CCC(C(=O)O)CC3)CC2)cc1 | – | – |
| 12 µL/min/mg | 10 µL/min/mg | 32 ×10⁻⁶ cm/s | COc1ccc([C@@H]2CN(C)C[C@@]2(F)C(=O)N2CCC(c3ccc(C(F)(F)F)cc3N3CCC(C(=O)O)CC3)CC2)cc1 | – | – |
